Data on two molecules can be found in patent US7026488B2, “Antitumor agents and process for producing the same” (priority 2001, dated 2006).

“Also recorded” adds a separate entry of the source.

A short description of one series: Solubility in water. Type of series: physicochemical. Conditions: for i.v. injection.
The next series relates to tumor. Conditions: administered into the tumor feeding artery, oily formulation; K. Doi et al. 1999; cited from earlier work.
The subject of series [1] is heme oxygenase in S 180 sarcoma tumor tissue. The series can be described thus: Inhibition of heme oxygenase in solid tumor model in mouse. Type of series: in vivo. Conditions: ddY mice, S 180 tumor. The method, then:
In male ddY mice with mean body weight of 35 g, S 180 sarcoma cells were implanted in the dorsal skin, and when solid tumor size become 5 mm in cross diameter after about one week, PEG-ZnPP dissolved in distilled water were injected via tail vein (i.v.) at 0.5 mg ZnPP equivalent per Kg body weight. The solid tumors were removed after 24 hr, and heme oxygenase activity was quantified similarly as described in Example 1. Control mouse received distilled water without PEG-ZnPP. The tumor specimens were obtained and treated similarly.

Series [2] relates to Lung adenocarcinoma cell line A549 cells. In words: Oxidative stress in cultured tumor cells (DCDHF fluorescence, flow cytometry). To be noted: 5 μM and 10 μM, 8 hrs, compared with no drug, FIG. 3. The series is classed as cell-based. The procedure: Lung adenocarcinoma cell line A549 cells were plated in plastic dish and after overnight culture, 5 μM and 10 μM of PEG-ZnPP dissolved in distilled water were added to the culture dishes. Then, 8 hrs after cultivation at 37° C., a reagent that quantifies oxidative stress, called dichlorodihydrofluorescein diacetyl ester (DCDHF) was added and allowing cell culture for 30 minutes. Under oxidative stress, this DCDHF will be become oxidized and will fluoresce due to oxystress was generated by formation of fluorescein in cells.
Quantification of fluorescence intensity represents the extent of oxidative stress induced in the cells. Then, cultured cells were trypsinized and recovered cells were subjected to the flow cytometrory analysis and fluorescence cell population was quantified. The results are shown in FIG. 3, where the effect of PEG-ZnPP at 5 μM, 10 μM, is compared with that of no drug.
A general note: A flow cytometer gives signals particle by particle.

Series [3] addresses T1, purified heme oxygenase fraction derived from rat spleen (Rattus norvegicus, UniProt P06762).
T1 construct: purified heme oxygenase fraction derived from rat spleen; from tissue; host or cells: rat spleen
T1 sequence (P06762 1-289): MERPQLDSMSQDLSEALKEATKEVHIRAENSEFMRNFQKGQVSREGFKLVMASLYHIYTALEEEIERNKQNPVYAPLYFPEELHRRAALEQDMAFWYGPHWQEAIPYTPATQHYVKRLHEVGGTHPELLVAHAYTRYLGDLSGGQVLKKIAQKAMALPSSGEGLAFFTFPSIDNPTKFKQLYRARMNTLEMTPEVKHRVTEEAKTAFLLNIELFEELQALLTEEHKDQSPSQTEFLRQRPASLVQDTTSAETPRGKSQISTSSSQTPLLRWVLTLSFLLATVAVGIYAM
The series can be described thus: Inhibitory activity against heme oxygenase (bilirubin formation, Lineweaver-Burk plot). Type of series: biochemical. The procedure: This was examined using purified heme oxygenase fraction derived from rat spleen. It was assayed at 37° C. in the presence of hemin, the substrate of heme oxygenase, cofactor (NADPH, […]), and cytosolic fraction containing bilirubin reductase, in which biliverdin formed by the oxygenase is converted to bilirubin.
Bilirubin was extracted with chloroform and quantified by absorption at 465 nm. By the addition of either PEG-ZnPP, or unmodified ZnPP, or no inhibitor, their effect on heme oxidase was examined, and the Lineweaver-Burk plot of heme oxygenase activity was plotted during the inhibition by PEG-ZnPP. […] Mode of inhibition was competitive, and the value was equivalent to that of unmodified ZnPP.

The nature of series [4]: Change of body weight in mice bearing solid tumor. The series is classed as in vivo, mouse. To be noted: ddY mice bearing S180, during or after i.v. administration, FIG. 5. The procedure:
(§1) Similar to Experiment 3 above, sarcoma S180 of mice implanted under the dosal skin of ddY mice, and after 10, 13 and 15 days after tumor implantation, PEG-ZnPP at 30 n mole, 30 n mole and 50 n mole (3 times only), respectively, was injected into the tail vein respectively (see also arrow marks in FIG. 4). Control mice received distilled water instead of PEG-ZnPP.

In another series the test system is sarcoma S180. The series can be described thus: Antitumor effect in mice bearing solid tumor. The series is classed as in vivo, mouse. Conditions: ddY mice, i.v. 30, 30 and 50 n mole on days 10, 13 and 15 after implantation, FIG. 4. The method, then: as §1

Turning to `C=CC1=C(C)c2cc3[n-]c(cc4nc(cc5[n-]c(cc1n2)c(C)c5C=C)C(C)=C4CCC(=O)O)c(CCC(=O)O)c3C.[Zn+2]` [ZnPP, zinc protoporphyrin], the figures for the Solubility in water result in “Solubility in water” and in “Solubility in water” (listed as Unmodified ZnPP) were “almost insoluble in water” and “could not be administered i.v. because of its difficulty in solubility; also recorded: Impossible to solubilize”, respectively. For the same molecule, in the series with tumor, the “Antitumor effect in rats” value is “confirmed antitumor effect in rats”.
Turning to “Polyethylene Glycol Conjugated ZnPP [PEG-ZnPP]”, the “Activity of heme oxygenase in tumor tissue” value in series [1] (i.v. tail vein 0.5 mg ZnPP equivalent per Kg, tumor removed after 24 hr, control 4.17 ± 1.07 (P < 0.02)) is reported as 2.30 ± 0.54 n mol bilirubin/mg protein/hr. In addition, in series [1] (i.v. tail vein, 24 hr), the “Effect on intratumor heme oxygenase activity (in words)” value is given as “significant reduction of the heme oxygenase activity”. Further, in series [2], the “intracellular oxidative state (DCDHF fluorescence)” value is “higher intracellular oxidative state in the dose dependent manner”. For the same molecule, in series [3] (37° C., hemin substrate, NADPH, cytosolic fraction with bilirubin reductase, read-out: inhibitory constant (Ki) against heme oxygenase), the Ki came to 130 nM. Moreover, the “Inhibition of heme oxygenase (in words)” value in series [3] (FIG. 2) was “inhibits the heme oxygenase in a dose dependent manner”. Moreover, the “Mode of inhibition of heme oxygenase” value in series [3] (Lineweaver-Burk plot, FIG. 2) is on record as “competitive”. The Body weight change result in series [4] was “no remarkable body weight loss”. Moreover, in the series on sarcoma S180, the “Tumor growth (tumor size) compared with control group” value is listed as “remarkable suppression of tumor growth”.

As a reminder, the Ki is the dissociation constant of the complex between target and ligand, obtained from inhibition or displacement.
